The results in this text go back to US7741355B2, “Small-molecule modulators of TRP-p8 activity” (Dendreon Corporation, priority 2006, dated 2010).

Like-named read-outs stand apart in the source and are kept apart here. Bounds are passed on as bounds.

Data set [1] deals with T1, Trp-p8 (Homo sapiens, UniProt Q7Z2W7, T58I).
T1 construct: expressed in transfected cells; host or cells: CHO (Chinese Hamster Ovary) cells
The data set can be described thus: ATP viability assay with CHO/Trp-p8 cells at 37° C. Format: cell-based. An excerpt:
(§1) Human Trp-p8 transfected CHO cells (referred to herein as CHO/Trp-p8) were generated for use in experiments of the present invention. Expression of Trp-p8 polypeptide in this transfectant and the absence of any endogenous expression in the non-transfected CHO was confirmed by western blot and immunofluorescence using a Trp-p8 specific antibody (GS2.20) as well as the calcium flux assay with Icilin (1-[2-hydroxyphenyl]-4-[3-nitrophenyl]-1,2,3,6-tetrahydropyrimidine-2-one) and menthol (2-isopropyl-5-methyl-cyclohexanol). Non-transfected CHO cells were used to establish the specificity of the effects of the compounds observed with CHO/Trp-p8.
This Example discloses an ATP viability assay suitable for screening for effective Trp-p8 agonists. The ATP viability assay described herein employs CHO cells expressing an exogenous Trp-p8 cDNA. This example further establishes that Trp-p8 agonists of the present invention are effective in decreasing the viability of Trp-p8 expressing cells.
The concentration of intracellular ATP declines very rapidly when metabolically active cells undergo necrosis and/or apoptosis. The ATP concentration and consequently the relative cell viability can be measured by established methods using commercially available reagents. In the agonist screening methodology disclosed herein, a compound that specifically decreases the viability of CHO/Trp-p8 cells is referred to as an agonist.
(§2) As a primary screen for efficacy and specificity for agonists, both the non-transfected CHO and CHO/Trp-p8 cells were exposed to 1 or 10 μM of test compounds in 1% dimethylsulfoxide (DMSO) or 1% DMSO (control) in a 96-well black walled, black-bottomed, cell-culture treated plate. DMSO was the solvent for all of the compounds tested. After 24-26 hours at 37° C., the cells were lysed and ATP concentration determined via a chemiluminescence assay using a commercially available reagent kit—Cell Titer-Glo (Promega; Madison, Wis.). […] (EC50 is defined herein as the agonist concentration at which there is a 50% reduction in relative cell viability).

The test system of data set [2] is CHO-K1 cells lacking Trp-p8. Kind of data set: Matched CHO (Trp-p8-) murine tumor xenograft model (CHO-K1 cells lacking Trp-p8). The format is in vivo, mice. The note with it: 100 mg/kg, single oral dose. As to the method:
Mice were injected subcutaneously with CHO-K1 cells lacking Trp-p8, resulting in the formation of solid tumors. The length (L; longest dimension) and width (W; dimension perpendicular to and in the same plane as length) of each tumor was measured with Vernier calipers, and the tumor volume was approximated by a formula for the volume of an ellipsoid: 0.52*L*W^2. When the average tumor volume reached approximately 50 mm^3, the mice were randomized into groups, and administered either a single dose of the compound as an aqueous formulation, or vehicle, by oral gavage. Tumors were then subsequently measured on the indicated days. The data is presented as mean tumor volumes±standard error of the mean.

The subject of data set [3] is CHO/Trp-p8 xenograft. Kind of data set: CHO/Trp-p8 murine tumor xenograft model. Format: in vivo, mice. As to the method: FIGS. 6A-6B are graphs depicting results from an exemplary animal model suitable for testing and characterizing small-molecule Trp-p8 modulators of the present invention. Mice were injected subcutaneously with CHO/Trp-p8 cells, resulting in the formation of solid tumors. The length (longest dimension) and width (dimension perpendicular to and in the same plane as length) of each tumor was measured with Vernier calipers, and the tumor volume was approximated by a formula for the volume of an ellipsoid: 0.52*L*W^2. When the average tumor volume reached approximately 100 mm^3, the mice were randomized into groups. In FIG. 6A, the mice were administered a single dose of either a study compound as an aqueous formulation, or vehicle alone, by oral gavage. […] Tumors were then subsequently measured on the indicated days. […]
Mice were injected subcutaneously with CHO/Trp-p8 cells, resulting in the formation of solid tumors. The length (L; longest dimension) and width (W; dimension perpendicular to and in the same plane as length) of each tumor was measured with calipers, and the tumor volume was approximated by a formula for the volume of an ellipsoid: 0.52*L*W^2. […] Tumors were subsequently measured on the indicated days. […]
Mice were injected subcutaneously with CHO/Trp-p8 cells, resulting in the formation of solid tumors. […] Tumors were then subsequently measured on the indicated days. […]

Data set [4] in a line: Plasma concentrations in dogs after a single oral dose. The following applies: Beagle dogs (FIG. 9B), aqueous formulation, oral gavage. Format: in vivo. The text has this:
(§3) FIGS. 9A and 9B are graphs depicting the plasma concentrations of several compounds, as a function of time and dose, in rats (FIG. 9A), and dogs (FIG. 9B) after a single oral dose. […] Blood was collected at the indicated time points, and analyzed for drug levels.

Data set [5] can be described thus: Plasma concentrations in rats after a single oral dose. The format is in vivo. The note with it: rodents (FIG. 9A: rats), aqueous formulation, oral gavage.
Excerpt: as §3

The subject of data set [6] is LuCaP. The data set can be described thus: LuCaP murine tumor xenograft model expressing Trp-p8. The format is in vivo, mice. The note with it: intraperitoneal injection, once a day for 5 days; slower-growing tumor. As to the method:
The LuCaP tumor model was obtained from Robert L. Vassella, Ph.D., Professor of Urology in the University of Washington's School of Medicine. The length (L; longest dimension) and width (W; dimension perpendicular to and in the same plane as length) of each tumor was measured with Vernier calipers, and the tumor volume was approximated by a formula for the volume of an ellipsoid: 0.52*L*W^2. When the average tumor volume reached approximately 150 mm^3, the mice were administered the compound, as an aqueous formulation, by intraperitoneal injection, once a day for 5 days. Tumors were then subsequently measured on the indicated days. The data is presented as mean tumor volumes±standard error of the mean.
Human prostate cancer xenografts expressing Trp-p8 (LuCaP, from Dr. Robert Vessella's lab in University of Washington—as assessed by in situ hybridization, quantitative polymerase chain reaction, and immunohistochemistry using a protein specific rabbit polyclonal antibody, T-904), as well as cell lines engineered to express Trp-p8, including CHO (Chinese Hamster Ovary) and EL-4 (Mouse Thymoma) cell lines, were used to establish tumor models in mice. Trp-p8 expression in the transfectants was confirmed by western blots and immunofluorescence using a Trp-p8 specific antibody (GS 2.20) as well as by response to known agonists in a calcium influx functional assay. […]

For data set [7], the system named is Parent CHO. Kind of data set: ATP viability assay with non-transfected (parent) CHO cells. Format: cell-based, Chinese Hamster. The note with it: Cricetulus griseus.
Excerpt: as §1, §2

Data set [8] can be described thus: Sustained plasma levels after oral dosing (half-life, species not stated). The format is in vivo. The note with it: oral administration, read-out: t½ (sustained plasma levels) (converted).
Excerpt: as §3

The mark [9] stands for this setting: Table 5, Formula I-E, CHO/Trp-p8 cells, 24-26 hours at 37° C., 50% reduction in relative cell viability, read-out: EC50.
[10] abbreviates: ATP viability assay, read-out: CHO/Trp-p8 EC50.

T1 sequence (Q7Z2W7 whole entry T58I): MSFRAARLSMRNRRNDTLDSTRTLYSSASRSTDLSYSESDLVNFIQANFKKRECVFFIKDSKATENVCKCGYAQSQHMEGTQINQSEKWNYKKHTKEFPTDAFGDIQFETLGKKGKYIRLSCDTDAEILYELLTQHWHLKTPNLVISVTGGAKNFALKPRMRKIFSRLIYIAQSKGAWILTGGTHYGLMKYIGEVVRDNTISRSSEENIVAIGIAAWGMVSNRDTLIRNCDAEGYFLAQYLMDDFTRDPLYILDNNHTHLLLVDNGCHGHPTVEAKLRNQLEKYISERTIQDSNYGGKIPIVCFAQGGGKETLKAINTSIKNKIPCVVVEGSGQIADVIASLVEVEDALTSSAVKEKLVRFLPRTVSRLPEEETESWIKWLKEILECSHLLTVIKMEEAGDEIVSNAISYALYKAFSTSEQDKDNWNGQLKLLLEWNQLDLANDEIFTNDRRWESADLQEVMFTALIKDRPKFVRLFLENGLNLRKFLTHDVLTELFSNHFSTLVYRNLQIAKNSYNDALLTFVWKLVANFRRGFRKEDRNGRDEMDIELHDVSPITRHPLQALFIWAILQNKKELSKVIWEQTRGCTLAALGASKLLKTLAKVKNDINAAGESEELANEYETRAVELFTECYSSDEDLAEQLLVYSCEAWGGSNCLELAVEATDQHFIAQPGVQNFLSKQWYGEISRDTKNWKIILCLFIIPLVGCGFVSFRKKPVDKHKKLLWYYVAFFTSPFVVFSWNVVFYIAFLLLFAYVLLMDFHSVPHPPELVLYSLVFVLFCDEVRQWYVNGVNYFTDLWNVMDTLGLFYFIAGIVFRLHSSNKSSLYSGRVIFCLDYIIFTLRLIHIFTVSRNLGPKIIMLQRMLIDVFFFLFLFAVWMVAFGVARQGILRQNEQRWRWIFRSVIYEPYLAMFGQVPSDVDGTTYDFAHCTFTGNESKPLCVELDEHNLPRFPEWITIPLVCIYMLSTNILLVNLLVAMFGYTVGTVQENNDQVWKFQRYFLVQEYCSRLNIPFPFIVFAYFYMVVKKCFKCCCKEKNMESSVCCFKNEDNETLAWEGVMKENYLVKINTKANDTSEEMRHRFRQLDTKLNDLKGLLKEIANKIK

`CC(C)[C@@H]1CC[C@@H](C)C[C@H]1C(=O)n1c(=O)n(CCN)c2cc(C(=O)N3CCOCC3)ccc21` [Compound 64]: in data set [1] (setting [9]), the EC50 lay in the range of 21 to 50 nM.
The same measure, in the same setting: in the case of `CC(C)[C@@H]1CC[C@@H](C)C[C@H]1C(=O)n1c(=O)n(CCN)c2cc(OCC(=O)c3ccccc3)ccc21` [Compound 65] it was 21 to 50 nM; in that of `CNCCn1c(=O)n(C(=O)[C@@H]2C[C@H](C)CC[C@H]2C(C)C)c2ccccc21` [Compound 66], 21 to 50 nM.
The same measure, in the same setting: in the case of `CCCCOc1ccc2c(c1)n(CCN)c(=O)n2C(=O)[C@@H]1C[C@H](C)CC[C@H]1C(C)C` [Compound 67] it was 51 to 100 nM.
On the same count and under the same terms, in the case of `CC(C)[C@@H]1CC[C@@H](C)C[C@H]1C(=O)n1c(=O)n(CCN)c2cc(C(=O)N(C)c3ccccc3)ccc21` [Compound 68] it was 51 to 100 nM.
As for `CCOC(=O)N1CCN(C(=O)c2ccc3c(c2)n(CCN)c(=O)n3C(=O)[C@@H]2C[C@H](C)CC[C@H]2C(C)C)CC1` [Compound 69], in data set [1] (setting [9]), the EC50 lay in the range of 51 to 100 nM.
Consider `CCN(CC)C(=O)c1ccc2c(c1)n(CCN)c(=O)n2C(=O)[C@@H]1C[C@H](C)CC[C@H]1C(C)C` [Compound 70], for which the EC50 in data set [1] (setting [9]) is 51 to 100 nM.
The same measure, in the same setting: next, `CC(C)[C@@H]1CC[C@@H](C)C[C@H]1C(=O)n1c(=O)n(CCN)c2cc(C(=O)NCCc3ccccc3)ccc21` [Compound 71]: 51 to 100 nM.
Take `CC(C)[C@@H]1CC[C@@H](C)C[C@H]1C(=O)n1c(=O)n(CCN)c2cc(C(=O)N[C@@H](CO)[C@@H](O)c3ccccc3)ccc21` [Compound 72]: in data set [1] (setting [9]), the EC50 lay in the range of 51 to 100 nM.
Regarding `CC(C)[C@@H]1CC[C@@H](C)C[C@H]1C(=O)n1c(=O)n(CCN)c2cc(C(=O)NCC(N)=O)ccc21` [Compound 73], the EC50 in data set [1] (setting [9]) was 51 to 100 nM.
Turning to `CC(C)[C@@H]1CC[C@@H](C)C[C@H]1C(=O)n1c(=O)n(CCN)c2cc(C(=O)NC(CO)CO)ccc21` [Compound 74], the EC50 in data set [1] (setting [9]) is 51 to 100 nM.
On the same count and under the same terms, next, `CC(C)[C@@H]1CC[C@@H](C)C[C@H]1C(=O)n1c(=O)n(CCN)c2cc(OCc3ccccc3)ccc21` [Compound 75]: 51 to 100 nM.
Still for that read-out and setting: in the case of `CC(C)[C@@H]1CC[C@@H](C)C[C@H]1C(=O)n1c(=O)n(CCCCN)c2ccccc21` [Compound 76] it was 51 to 100 nM.
As for `COc1ccc2c(c1)n(CCN)c(=O)n2C(=O)[C@@H]1C[C@H](C)CC[C@H]1C(C)C` [Compound I], the “efficacy in the matched CHO (Trp-p8-) model” value in data set [2] is “did not show significant efficacy”. The “effect of treatment on tumor growth, CHO/Trp-p8 model” value in data set [3] (fast-growing tumor) was “attenuated growth, but did not cause regression”. For the same compound, in data set [3] (single oral dose of 10 mg/kg), the “efficacy in the CHO/Trp-p8 xenograft model” value was “significant efficacy”. In addition, the “exposure after a single oral administration” value (from here on “exposure”) in data set [4] and in data set [5] was “prolonged exposure” each time. In addition, the “effect of treatment on tumor growth, LuCaP model” value in data set [6] is given as “statistically significant regression, as well as growth-inhibition”. Further, the “times more potent than Compounds II, III, and IV” value in data set [1] (ATP viability assay) is “approximately 3 times”. In addition, the EC50 in data set [1] (setting [10]) is 3 nM; in data set [7], greater than 10000 nM. Moreover, the half-life in data set [8] was roughly 9 h.
For `CC(C)[C@@H]1CC[C@@H](C)C[C@H]1C(=O)Nc1cc(-c2ccccc2)nn1CCN` [III], the “exposure” value in data set [4] and in data set [5] was “prolonged exposure” each time. In addition, the EC50 in data set [1] (setting [10]) is 10 nM; in data set [7], greater than 10000 nM. Besides, the half-life in data set [8] is roughly 9 h.
As to `CC(C)[C@@H]1CC[C@@H](C)C[C@H]1C(=O)n1c(=O)n(CCN)c2ccccc21` [II], the “exposure” value in data set [4] and in data set [5] was “prolonged exposure” throughout. Moreover, the results for the EC50 in data set [1] (setting [10]) and in data set [7] were 10 nM and greater than 10000 nM, respectively. Moreover, the half-life in data set [8] was roughly 9 h.
